40 compounds from US20260327234A1, “NOVEL COMPOUNDS AS CYP11A1 INHIBITORS AND METHODS OF USE THEREOF” (Shenzhen Ionova Life Science Co., Ltd., priority 2023, published 2026) can be followed below.

Each structure is given as a SMILES string.

In assay [1] the target is T1, testosterone (T) production in NCI-H295R cells (Homo sapiens, UniProt P05108).
T1 construct: testosterone measured by LC-MS/MS as downstream steroid
T1 sequence (P05108 40-521): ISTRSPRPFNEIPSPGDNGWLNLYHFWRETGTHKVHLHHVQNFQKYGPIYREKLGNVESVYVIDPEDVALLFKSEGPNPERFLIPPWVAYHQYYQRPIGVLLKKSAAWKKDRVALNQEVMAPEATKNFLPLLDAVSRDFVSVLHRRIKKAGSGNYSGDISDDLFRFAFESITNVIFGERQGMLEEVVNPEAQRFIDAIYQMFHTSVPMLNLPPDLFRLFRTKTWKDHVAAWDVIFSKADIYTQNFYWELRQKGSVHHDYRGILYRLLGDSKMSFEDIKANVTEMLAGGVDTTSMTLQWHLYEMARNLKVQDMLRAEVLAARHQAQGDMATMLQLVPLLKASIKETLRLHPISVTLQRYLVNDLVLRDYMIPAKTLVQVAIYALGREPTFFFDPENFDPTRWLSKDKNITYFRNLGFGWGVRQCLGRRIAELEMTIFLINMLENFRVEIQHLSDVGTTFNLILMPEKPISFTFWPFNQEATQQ
Briefly: H295R Steroid Biosynthesis Inhibition Assay - inhibition of testosterone (T) production in NCI-H295R cells. The format is cell-based. The settings on record: 48 h, LC-MS/MS, read-out: Inh. of T IC50. The procedure:
(§1) Steroid Biosynthesis Inhibition by test compounds in NCI-H295R cells (ATCC) was studied by measuring the cellular production of pregnenolone (P) catalyzed by CYP11A1 and the downstream steroid, testosterone (T). Cells were cultured in Dulbecco's modified eagle's medium F12 (DMEM/F12) with phenol red (Gibco, Cat. No. 11330032) supplemented with 2% UltroserG (Pall, Cat. No. 15950-017, USA), 1% ITS-Premix and 1% penicillin and streptomycin (Hyclone, Cat. No. SV30010, USA). Prior to the assay, cells were thawed and passed 4 times. The maximal passage number used for the assay was 10. For this assay, DMEM/F12 without phenol red supplemented with 10% charcoal-stripped fetal bovine serum (VivaCell, Cat. No. C3830-0500, USA) were used. In a 96-well plate, 60,000 cells/well were plated (90 μL/well) and incubated for 24 h. Test compounds, diluted in a serial dilution ranging from 1000 nM to 0.15 nM in the assay medium, were added to the plate. After 48 h of incubation, solution from each well were collected and transferred to individual 1.5 mL centrifuge tubes, and then 5 ng/mL deuterated testosterone (D3-testosterone) and 50 ng/mL deuterated pregnenolone (D4-pregnenolone) in 200 μL acetonitrile were added. After vigorously mixing for 5 min, the mixture was centrifuged at 12,700 rpm for 15 min. An aliquot of 250 μL supernatant was collected and dried under N2 stream. After addition of 150 μL Methanol:water (1:1, v/v) to the dried product, 50 μL sample of this solution was injected into the LC-MS/MS system for analysis.
(§2) The half-maximal inhibitory concentration (IC50) for steroid biosynthesis inhibition was determined by curve-fitting with the 4-variable inhibitory dose response equation using GraphPad Prism software.
(§3) Testosterone and pregnenolone were analyzed using Shimadzu LC30AD HPLC system (Shimadzu, Kyoto, Japan) coupled with AB SCIEX Qtrap 5500 triple quadrupole mass spectrometer (AB Sciex, Framingham, MA, USA) via ESI interface in the positive ionization mode. An ACQUITY UPLC BEH Shield RP18 column (1.7 μm, 2.1×50 mm, Milford, MA, USA) maintained at 40° C. was used to separate analytes and IS form the sample matrix.
(§4) The mobile phase was a mixture of 10 mM ammonium acetate in water containing 0.2% formic acid (A) and methanol containing 0.2% formic acid (B) at a flow rate of 0.6 mL/min. The gradient program was set as follows: from 0 min to 0.5 min, 60% B; from 0.5 min to 3.5 min, 90% B; from 3.5 min to 4.5 min, 90% B; from 4.51 min to 5.0 min, 60% B. The injection volume was […].
(§5) The MS/MS parameters were set as follows: ion spray voltage, 5500 V; curtain gas, 35 psi; Gas 1, 55 psi; Gas 2: 55 psi; temperature, […]. The optimized multiple reaction monitoring (MRM) fragmentation transitions and MS parameters of each analyte are summarized in Table 1.

For a further assay, the target named is T2, CYP11A1 (Homo sapiens, UniProt P05108).
T2 construct: measuring the cellular production of pregnenolone (P) catalyzed by CYP11A1; host or cells: NCI-H295R
T2 sequence (P05108 40-521): T1 sequence (P05108 40-521)
Briefly: H295R Steroid Biosynthesis Inhibition Assay - inhibition of pregnenolone (P) production catalyzed by CYP11A1 in NCI-H295R cells. The format is cell-based. The note with it: 48 h, LC-MS/MS, read-out: Inh. of P IC50. On the procedure: as §1, §2, §3, §4, §5

The IC50 is the concentration that gives 50% inhibition. For `CS(=O)(=O)N1CCC(c2ccc3nc(CN4Cc5ccccc5C4)ccc3n2)CC1` [Compound 79], the IC50 (in assay [1]; on CYP11A1) was at most 40 nM in each case.

With `CS(=O)(=O)N1CCC(c2cnc3cc(CN4Cc5ccccc5C4)cnc3c2)CC1` [Compound 80], the IC50 (in assay [1]; at CYP11A1) was at most 40 nM throughout.

Regarding `CS(=O)(=O)N1CC=C(c2ccc3nc(CN4Cc5ccccc5C4)cnc3c2)CC1` [Compound 81], the IC50 is 41 to 100 nM in assay [1] and at most 40 nM at CYP11A1.

Regarding `CS(=O)(=O)N1CCC(c2ncc3cc(CN4Cc5ccccc5C4)ccc3n2)CC1` [Compound 82], the IC50 was 41 to 100 nM in assay [1] and at most 40 nM at CYP11A1.

`Cc1nc(C2CCN(S(C)(=O)=O)CC2)nc2ccc(CN3Cc4ccccc4C3)cc12` [Compound 83]: the IC50 (in assay [1]; on CYP11A1) was at most 40 nM each time.

On to `Cc1nc(C2CCN(S(C)(=O)=O)CC2)nc2ccc(CN3CCn4cccc4C3)cc12` [Compound 84], for which the 50% inhibitory concentration (IC50) in assay [1] is at least 101 nM; at CYP11A1, at least 100 nM.

For `COc1nc(C2CCN(S(C)(=O)=O)CC2)nc2ccc(CN3Cc4ccccc4C3)cc12` [Compound 85], the IC50 (in assay [1]; at CYP11A1) was at most 40 nM in each case.

Turning to `CS(=O)(=O)N1C[C@@H]2[C@H](C1)[C@H]2c1cnc2cc(CN3Cc4ccccc4C3)ccc2n1` [Compound 86], the IC50 is 41 to 100 nM in assay [1] and at most 40 nM at CYP11A1.

Take `CS(=O)(=O)N1CCC(c2cnc3cc(CN4Cc5ccc(F)cc5C4)ccc3n2)CC1` [Compound 87]: the 50% inhibitory concentration (IC50) (in assay [1]; at CYP11A1) was at most 40 nM in each case.

As to `CS(=O)(=O)N1CCC(c2cnc3cc(CN4Cc5ccc(OC(F)F)cc5C4)ccc3n2)CC1` [Compound 89], the IC50 (in assay [1]; at CYP11A1) was at most 40 nM each time.

Consider `CS(=O)(=O)N1CCC(c2cnc3cc(CN4Cc5ccc(C(F)(F)F)cc5C4)ccc3n2)CC1` [Compound 90], for which the IC50 (in assay [1]; on CYP11A1) was at most 40 nM in each case.

`CCS(=O)(=O)N1CCC(c2cnc3cc(CN4Cc5ccccc5C4)ccc3n2)CC1` [Compound 91]: the IC50 (in assay [1]; at CYP11A1) was at most 40 nM in each case.

As for `CCCS(=O)(=O)N1CCC(c2cnc3cc(CN4Cc5ccccc5C4)ccc3n2)CC1` [Compound 92], the IC50 (in assay [1]; at CYP11A1) was at most 40 nM in each case.

Turning to `CCCCS(=O)(=O)N1CCC(c2cnc3cc(CN4Cc5ccccc5C4)ccc3n2)CC1` [Compound 93], the IC50 (in assay [1]; at CYP11A1) was at most 40 nM each time.

For `CC(C)S(=O)(=O)N1CCC(c2cnc3cc(CN4Cc5ccccc5C4)ccc3n2)CC1` [Compound 94], the IC50 (in assay [1]; on CYP11A1) was at most 40 nM throughout.

In the case of `O=S(=O)(C1CC1)N1CCC(c2cnc3cc(CN4Cc5ccccc5C4)ccc3n2)CC1` [Compound 95], the IC50 (in assay [1]; at CYP11A1) was at most 40 nM each time.

As to `O=S(=O)(C1CCCC1)N1CCC(c2cnc3cc(CN4Cc5ccccc5C4)ccc3n2)CC1` [Compound 96], the IC50 (in assay [1]; on CYP11A1) was at most 40 nM in each case.

In the case of `O=S(=O)(N1CCC(c2cnc3cc(CN4Cc5ccccc5C4)ccc3n2)CC1)C(F)(F)F` [Compound 97], the IC50 in assay [1] is at least 101 nM; at CYP11A1, 40 to 100 nM.

Take `O=S(=O)(c1ccccc1)N1CCC(c2cnc3cc(CN4Cc5ccccc5C4)ccc3n2)CC1` [Compound 98]: the IC50 (in assay [1]; on CYP11A1) was at most 40 nM each time.

With `CN(C)S(=O)(=O)N1CCC(c2cnc3cc(CN4Cc5ccccc5C4)ccc3n2)CC1` [Compound 99], the IC50 in assay [1] is 41 to 100 nM; on CYP11A1, 40 to 100 nM.

As for `CNS(=O)(=O)N1CCC(c2cnc3cc(CN4Cc5ccccc5C4)ccc3n2)CC1` [Compound 100], the IC50 (in assay [1]; at CYP11A1) was at most 40 nM in each case.

With `CC(=O)N1CCC(c2cnc3cc(CN4Cc5ccccc5C4)ccc3n2)CC1` [Compound 101], the half-inhibitory concentration (IC50) was at least 101 nM in assay [1] and at least 100 nM at CYP11A1.

`O=C(C1CC1)N1CCC(c2cnc3cc(CN4Cc5ccccc5C4)ccc3n2)CC1` [Compound 102]: the IC50 in assay [1] lay in the range of 41 to 100 nM; at CYP11A1 it was 40 to 100 nM.

Take `O=C(C(F)F)N1CCC(c2cnc3cc(CN4Cc5ccccc5C4)ccc3n2)CC1` [Compound 103]: the IC50 in assay [1] is at least 101 nM; on CYP11A1, 40 to 100 nM.

As to `O=C(c1ccccc1)N1CCC(c2cnc3cc(CN4Cc5ccccc5C4)ccc3n2)CC1` [Compound 104], the IC50 is at least 101 nM in assay [1] and 40 to 100 nM on CYP11A1.

Turning to `O=C(c1ncccn1)N1CCC(c2cnc3cc(CN4Cc5ccccc5C4)ccc3n2)CC1` [Compound 105], the IC50 in assay [1] is at least 101 nM; on CYP11A1, 40 to 100 nM.

With `Cn1ccc(C(=O)N2CCC(c3cnc4cc(CN5Cc6ccccc6C5)ccc4n3)CC2)n1` [Compound 106], the IC50 in assay [1] is at least 101 nM; at CYP11A1, at most 40 nM.

In the case of `O=C(c1ncc[nH]1)N1CCC(c2cnc3cc(CN4Cc5ccccc5C4)ccc3n2)CC1` [Compound 107], the IC50 in assay [1] is at least 101 nM; at CYP11A1, 40 to 100 nM.

For `Cn1ccnc1C(=O)N1CCC(c2cnc3cc(CN4Cc5ccccc5C4)ccc3n2)CC1` [Compound 108], the figures for the half-inhibitory concentration (IC50) (in assay [1]; on CYP11A1) were at least 101 nM and 40 to 100 nM, respectively.

In the case of `O=C(c1nccs1)N1CCC(c2cnc3cc(CN4Cc5ccccc5C4)ccc3n2)CC1` [Compound 109], the IC50 lay in the range of 41 to 100 nM in assay [1] and 40 to 100 nM on CYP11A1.

In the case of `COC(=O)N1CCC(c2cnc3cc(CN4Cc5ccccc5C4)ccc3n2)CC1` [Compound 110], the IC50 (in assay [1]; at CYP11A1) was at most 40 nM each time.

As to `CCOC(=O)N1CCC(c2cnc3cc(CN4Cc5ccccc5C4)ccc3n2)CC1` [Compound 111], the IC50 (in assay [1]; on CYP11A1) was at most 40 nM in each case.

Take `CC(C)OC(=O)N1CCC(c2cnc3cc(CN4Cc5ccccc5C4)ccc3n2)CC1` [Compound 112]: the results for the half-maximal inhibitory concentration (IC50) (in assay [1]; on CYP11A1) were 41 to 100 nM and 40 to 100 nM, respectively.

With `CC(C)(C)OC(=O)N1CCC(c2cnc3cc(CN4Cc5ccccc5C4)ccc3n2)CC1` [Compound 113], the IC50 in assay [1] was in the range of 41 to 100 nM; on CYP11A1, 40 to 100 nM.

Consider `O=C(OC1CCCC1)N1CCC(c2cnc3cc(CN4Cc5ccccc5C4)ccc3n2)CC1` [Compound 114], for which the IC50 (in assay [1]; on CYP11A1) was at most 40 nM each time.

As to `CNC(=O)N1CCC(c2cnc3cc(CN4Cc5ccccc5C4)ccc3n2)CC1` [Compound 115], the IC50 (in assay [1]; on CYP11A1) was at most 40 nM each time.

Turning to `CCNC(=O)N1CCC(c2cnc3cc(CN4Cc5ccccc5C4)ccc3n2)CC1` [Compound 116], the IC50 is at least 101 nM in assay [1] and 40 to 100 nM at CYP11A1.

For `CC(C)NC(=O)N1CCC(c2cnc3cc(CN4Cc5ccccc5C4)ccc3n2)CC1` [Compound 117], the IC50 in assay [1] is at least 101 nM; on CYP11A1, 40 to 100 nM.

Turning to `O=C(NC1COC1)N1CCC(c2cnc3cc(CN4Cc5ccccc5C4)ccc3n2)CC1` [Compound 118], the figures for the IC50 (in assay [1]; at CYP11A1) were at least 101 nM and at least 100 nM, respectively.

`CC(C)(C)NC(=O)N1CCC(c2cnc3cc(CN4Cc5ccccc5C4)ccc3n2)CC1` [Compound 119]: the IC50 is 41 to 100 nM in assay [1] and at most 40 nM on CYP11A1.
